This passage reports Ka, Kb and KSV results from ChEMBL document CHEMBL2057110, “Investigation of the interaction between amodiaquine and human serum albumin by fluorescence spectroscopy and molecular modeling” (Eur J Med Chem, 2012).

Assay type in all cases: ADME
What all share (details): isolated protein

Data set [1] has as its target T1, Albumin (Homo sapiens, UniProt P02768). Briefly: Binding affinity to human serum albumin assessed as modified Stern-Volmer association constant at pH 7.4 and 310K by spectrofluorimetry.
Data set [2] deals with T1, Albumin. Nature of the data set: Apparent binding affinity to human serum albumin at pH 7.4 and 291K by spectrofluorimetry.
Data set [3] has as its target T1, Albumin. Nature of the data set: Apparent binding affinity to human serum albumin at pH 7.4 and 301K by spectrofluorimetry.
Data set [4] concerns the target T1, Albumin. Briefly: Apparent binding affinity to human serum albumin at pH 7.4 and 310K by spectrofluorimetrysis.
Data set [5] deals with T1, Albumin. Nature of the data set: Binding affinity to human serum albumin assessed as modified Stern-Volmer association constant at pH 7.4 and 291K by spectrofluorimetry in presence of warfarin.
Data set [6] has as its target T1, Albumin. Briefly: Binding affinity to human serum albumin assessed as modified Stern-Volmer association constant at pH 7.4 and 291K by spectrofluorimetry in presence of ibuprofen.
In data set [7] the target is T1, Albumin. Nature of the data set: Binding affinity to human serum albumin assessed as Stern-Volmer association constant at pH 7.4 and 291K by spectrofluorimetry.
In data set [8] the target is T1, Albumin. Nature of the data set: Binding affinity to human serum albumin assessed as Stern-Volmer association constant at pH 7.4 and 301K by spectrofluorimetry.
The target in data set [9] is T1, Albumin. Briefly: Binding affinity to human serum albumin assessed as Stern-Volmer association constant at pH 7.4 and 310K by spectrofluorimetry.

Molecules are shown by their SMILES.

T1 sequence (P02768 whole entry): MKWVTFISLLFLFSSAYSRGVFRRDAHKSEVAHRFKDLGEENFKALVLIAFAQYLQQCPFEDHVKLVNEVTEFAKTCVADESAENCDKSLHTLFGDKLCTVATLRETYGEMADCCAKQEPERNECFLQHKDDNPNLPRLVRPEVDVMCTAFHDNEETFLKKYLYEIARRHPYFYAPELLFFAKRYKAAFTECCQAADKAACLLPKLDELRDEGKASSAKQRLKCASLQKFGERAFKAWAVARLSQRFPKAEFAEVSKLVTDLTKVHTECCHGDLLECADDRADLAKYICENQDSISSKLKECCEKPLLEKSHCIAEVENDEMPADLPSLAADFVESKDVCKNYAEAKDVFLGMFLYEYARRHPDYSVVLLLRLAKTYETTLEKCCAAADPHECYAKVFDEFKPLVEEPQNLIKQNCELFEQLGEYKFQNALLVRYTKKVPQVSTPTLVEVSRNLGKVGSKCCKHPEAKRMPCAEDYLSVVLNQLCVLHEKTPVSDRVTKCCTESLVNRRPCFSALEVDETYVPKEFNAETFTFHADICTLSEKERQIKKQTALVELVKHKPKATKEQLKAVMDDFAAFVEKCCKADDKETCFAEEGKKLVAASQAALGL

Consider `CCN(CC)Cc1cc(Nc2ccnc3cc(Cl)ccc23)ccc1O.Cl`, for which the Ka on Albumin [1] is 45900 M⁻¹; at Albumin [5], 73100 M⁻¹; at Albumin [6] it was 114000 M⁻¹. Moreover, the Kb was determined as 35000 M⁻¹ at Albumin [2], 48600 M⁻¹ on Albumin [3] and 67300 M⁻¹ at Albumin [4]. Also, the KSV turned out to be 76600 M⁻¹ at Albumin [7], 56200 M⁻¹ on Albumin [8] and 48400 M⁻¹ on Albumin [9].
